Earlier results on 3 molecules are cited in PMC3099137 (Bioorganic & medicinal chemistry, 2011).

Structures are written as SMILES.

For data set [1] the following is noted: mice, attributed to in vivo defluorination.
Another data set deals with EGFR tyrosine kinase. The note with it: read-out: IC50, inhibition of EGFR tyrosine kinase activity.

As to `COc1cc2ncnc(Nc3ccc([18F])c(Cl)c3)c2cc1OC` [4-(3-chloro-4-[^18F]fluoroanilino)-6,7-dimethoxy-quinazoline], the “bone uptake (in words)” value in data set [1] is given as “high bone uptake”.
On to `COc1cc2ncnc(Nc3cccc(Br)c3)c2cc1OC` [PD153035, 6,7-dimethoxy-4-(3-bromoanilino)quinazoline], for which the IC50 on EGFR tyrosine kinase is 25 pM.
As to `CCOc1cc2ncnc(Nc3cccc(Br)c3)c2cc1OCC` [diethoxy- derivative], the IC50 at EGFR tyrosine kinase is 6 pM.

The term IC50 denotes the concentration that inhibits the measured activity by half.
